From publication PMC6269039, “Synthesis and Cytotoxicity Testing of New Amido-Substituted Triazolopyrrolo[2,1-c][1,4]benzodiazepine (PBDT) Derivatives” (Molecules, 2012)

Legend:
Mahlavu cells [1] = assay: cells; settings: Homo sapiens, 48 h; for viability at 100 µM: read-out: percentage of viable Mahlavu cells (cell viability); for IC50: read-out: IC50 for Mahlavu cells
Experimental: (§1) The cytotoxic activities of the newly synthesized amido-substituted triazolopyrrolo [2,1-c][1,4]benzodiazepines PBDT-7a–k were tested against Mahlavu and MRC-5 cells. After incubation of the cells with the compounds at concentrations of 3.12, 6.25, 12.50, 25.0, 50.0 and 100 µM for 48 h, the cell growth and viability were assessed by using CCK-8 assay.
(§2) Human hepatocellular carcinoma (Mahlavu) epithelial cells were used for cell culture experiments. Cells were cultured with 90% Dulbecco’s modified Eagle’s medium with 10% fetal bovine serum, 100 U/mL penicillin, and 100 μg/mL streptomycin. The cells were placed in an incubator to maintain high humidity, a temperature of 37 °C, and 5% CO2 for cell culture experiments. Cells were routinely sub-passaged in a 1:4 to 1:6 split using 0.25% trypsin.
(§3) The cell viability was determined using a CCK-8 assay following the manufacturer’s instructions. Mahlavu cells and MRC-5 cells were seeded in 96-well plates and allowed to attach overnight at 37 °C. Cells were treated with PBDT-7a–k in 0.1% FBS MEM or DMEM (100 μL/well), and the cells were incubated for 48 h in a humidified atmosphere. After the incubation period, 10 μL of cell Counting Kit-8 solution was added to the medium, and the cells were incubated for an additional 1–4 h in the incubator. The absorbance at 450 nm was then measured using a microplate reader. The IR was calculated using the following equation: IR = [1 − (A value for the treated samples − A value for the blank samples)/(A value for the control samples − A value for the blank samples)] × 100%. The assays were performed in triplicate and repeated at least twice.
(§4) Mahlavu cells were treated with PBDT-7 series compounds for 48 h, and survival was assessed using a CCK-8 assay (mean ± SEM, n = 6).

Mahlavu cells [2] = settings: 48 h, CCK-8; for effect on viability of Mahlavu cells, in words: 100 µM
Experimental: as §1, §2, §3, §4

MRC-5 cells = assay: CCK-8 cytotoxicity assay, MRC-5 cells; settings: 48 h
Experimental: (§5) After incubation of the cells with the compounds at concentrations of 3.12, 6.25, 12.50, 25.0, 50.0 and 100 µM for 48 h, the cell growth and viability were assessed by using CCK-8 assay.
(§6) Human fibroblast cells (MRC-5) cells were used for cell culture experiments. Cells were cultured with 90% Eagle’s minimum essential medium with 2 mM L-glutamine and Earle’s BSS adjusted to contain 1.5 g/L sodium bicarbonate, 0.1 mM non-essential amino acids, 1.0 mM sodium pyruvate with 10% fetal bovine serum, 100 U/mL penicillin, and 100 μg/mL streptomycin. The cells were placed in an incubator to maintain high humidity, 37 °C, and 5% CO2 for the cell culture experiments. Cells were routinely sub-passaged in a 1:2 to 1:5 split using 0.25% trypsin.
(§7) The cell viability was determined using a CCK-8 assay following the manufacturer’s instructions. Mahlavu cells and MRC-5 cells were seeded in 96-well plates and allowed to attach overnight at 37 °C. […] After the incubation period, 10 μL of cell Counting Kit-8 solution was added to the medium, and the cells were incubated for an additional 1–4 h in the incubator. The absorbance at 450 nm was then measured using a microplate reader. The IR was calculated using the following equation: IR = [1 − (A value for the treated samples − A value for the blank samples)/(A value for the control samples − A value for the blank samples)] × 100%. The assays were performed in triplicate and repeated at least twice.

in vitro = settings: human
Experimental: as §5, §6, §7

| Compound | viability at 100 µM (Mahlavu cells [1]) [%] | melting point [°C] | viability at 48 h, 100 µM (in vitro) [%] | other results |
| --- | --- | --- | --- | --- |
| COc1cccc(C(=O)Nc2nnc3n2-c2ccccc2C(=O)N2CCC[C@@H]32)c1 [PBDT-7f, 3-Methoxy-N-((13aS)-9-oxo-11,12,13,13a-tetrahydro-9H-benzo[e]pyrrolo[1,2-a][1,2,4]triazolo[3,4-c][1,4]diazepin-3-yl)benzamide] | 37 | 168 to 170 |  |  |
| O=C(Nc1nnc2n1-c1ccccc1C(=O)N1CCC[C@@H]21)c1cccc(Cl)c1 [PBDT-7h, 3-Chloro-N-((13aS)-9-oxo-11,12,13,13a-tetrahydro-9H-benzo[e]pyrrolo[1,2-a][1,2,4]triazolo[3,4-c][1,4]diazepin-3-yl)benzamide] |  |  |  | survival rate of Mahlavu cells (Mahlavu cells [2]; 50 µM): below 50%; inhibition of Mahlavu cells, in words (Mahlavu cells [2]): potent inhibitor; toxicity to MRC-5 (normal) cells, in words (MRC-5 cells): highly toxic |
| N#Cc1cccc(C(=O)Nc2nnc3n2-c2ccccc2C(=O)N2CCC[C@@H]32)c1 [PBDT-7g, 3-Cyano-N-((13aS)-9-oxo-11,12,13,13a-tetrahydro-9H-benzo[e]pyrrolo[1,2-a][1,2,4]triazolo[3,4-c] [1,4]diazepin-3-yl)benzamide] | 36 | 245 to 246 |  | IC50 (Mahlavu cells [1]): 50 µM |
| O=C(Nc1nnc2n1-c1ccccc1C(=O)N1CCC[C@@H]21)c1cccs1 [PBDT-7k, N-((13aS)-9-Oxo-11,12,13,13a-tetrahydro-9H-benzo[e]pyrrolo[1,2-a][1,2,4]triazolo[3,4-c][1,4]diazepin-3-yl)thiophene-2-carboxamide] | > 75 | 185 to 186 | > 75 |  |
| O=C(Nc1nnc2n1-c1ccccc1C(=O)N1CCC[C@@H]21)c1ccccc1F [PBDT-7c, 2-Fluoro-N-((13aS)-9-oxo-11,12,13,13a-tetrahydro-9H-benzo[e]pyrrolo[1,2-a][1,2,4]triazolo[3,4-c][1,4]diazepin-3-yl)benzamide] |  |  |  | effect on viability of Mahlavu cells, in words (Mahlavu cells [2]): little effect |
| O=C(Nc1nnc2n1-c1ccccc1C(=O)N1CCC[C@@H]21)c1cccc(C(F)(F)F)c1 [PBDT-7i, N-((13aS)-9-Oxo-11,12,13,13a-tetrahydro-9H-benzo[e]pyrrolo[1,2-a][1,2,4]triazolo[3,4-c][1,4]diazepin-3-yl)-3-(trifluoromethyl)benzamide] | 2 |  |  | IC50 (Mahlavu cells [1]): 50 µM; inhibition of Mahlavu cells, in words (Mahlavu cells [2]): selectively inhibit the growth; toxicity to MRC-5 (normal) cells, in words (MRC-5 cells): low-toxic |
| O=C(Nc1nnc2n1-c1ccccc1C(=O)N1CCC[C@@H]21)c1ccccc1 [PBDT-7b, N-((13aS)-9-Oxo-11,12,13,13a-tetrahydro-9H-benzo[e]pyrrolo[1,2-a][1,2,4]triazolo[3,4-c][1,4]diazepin-3-yl)benzamide] | > 75 | 173 to 175 | > 75 |  |
| O=C(Nc1nnc2n1-c1ccccc1C(=O)N1CCC[C@@H]21)c1ccc(F)cc1 [PBDT-7e, 4-Fluoro-N-((13aS)-9-oxo-11,12,13,13a-tetrahydro-9H-benzo[e]pyrrolo[1,2-a][1,2,4]triazolo[3,4-c][1,4]diazepin-3-yl)benzamide] |  |  |  | effect on viability of Mahlavu cells, in words (Mahlavu cells [2]): little effect |
| CC(C)(C)C(=O)Nc1nnc2n1-c1ccccc1C(=O)N1CCC[C@@H]21 [PBDT-7a, ((13aS)-9-Oxo-11,12,13,13a-tetrahydro-9H-benzo[e]pyrrolo[1,2-a][1,2,4]triazolo[3,4-c][1,4]diazepin-3-yl)pivalamide] | > 75 | 213 to 215 | > 75 |  |
| O=C(Nc1nnc2n1-c1ccccc1C(=O)N1CCC[C@@H]21)c1cccnc1 [PBDT-7j, N-((13aS)-9-Oxo-11,12,13,13a-tetrahydro-9H-benzo[e]pyrrolo[1,2-a][1,2,4]triazolo[3,4-c][1,4]diazepin-3-yl)nicotinamide] | > 75 | 225 | > 75 |  |
| O=C(Nc1nnc2n1-c1ccccc1C(=O)N1CCC[C@@H]21)c1cccc(F)c1 [PBDT-7d, 3-Fluoro-N-((13aS)-9-oxo-11,12,13,13a-tetrahydro-9H-benzo[e]pyrrolo[1,2-a][1,2,4]triazolo[3,4-c][1,4]diazepin-3-yl)benzamide] | ~61 | 159 to 160 |  |  |
